Reference: article PMC9120017, “Inhibition mechanism of the chloride channel TMEM16A by the pore blocker 1PBC” (Nature Communications, 2022)
pIC50: −log10 of the molar value. Like-named read-outs stand apart in the source and are kept apart here.

Target: T1, mouse TMEM16A mutant V543A (Mus musculus, UniProt Q8BHY3, V543A)
T1 construct: expressed in transfected cells; host or cells: HEK293T
T1 sequence (Q8BHY3 1-960 V543A): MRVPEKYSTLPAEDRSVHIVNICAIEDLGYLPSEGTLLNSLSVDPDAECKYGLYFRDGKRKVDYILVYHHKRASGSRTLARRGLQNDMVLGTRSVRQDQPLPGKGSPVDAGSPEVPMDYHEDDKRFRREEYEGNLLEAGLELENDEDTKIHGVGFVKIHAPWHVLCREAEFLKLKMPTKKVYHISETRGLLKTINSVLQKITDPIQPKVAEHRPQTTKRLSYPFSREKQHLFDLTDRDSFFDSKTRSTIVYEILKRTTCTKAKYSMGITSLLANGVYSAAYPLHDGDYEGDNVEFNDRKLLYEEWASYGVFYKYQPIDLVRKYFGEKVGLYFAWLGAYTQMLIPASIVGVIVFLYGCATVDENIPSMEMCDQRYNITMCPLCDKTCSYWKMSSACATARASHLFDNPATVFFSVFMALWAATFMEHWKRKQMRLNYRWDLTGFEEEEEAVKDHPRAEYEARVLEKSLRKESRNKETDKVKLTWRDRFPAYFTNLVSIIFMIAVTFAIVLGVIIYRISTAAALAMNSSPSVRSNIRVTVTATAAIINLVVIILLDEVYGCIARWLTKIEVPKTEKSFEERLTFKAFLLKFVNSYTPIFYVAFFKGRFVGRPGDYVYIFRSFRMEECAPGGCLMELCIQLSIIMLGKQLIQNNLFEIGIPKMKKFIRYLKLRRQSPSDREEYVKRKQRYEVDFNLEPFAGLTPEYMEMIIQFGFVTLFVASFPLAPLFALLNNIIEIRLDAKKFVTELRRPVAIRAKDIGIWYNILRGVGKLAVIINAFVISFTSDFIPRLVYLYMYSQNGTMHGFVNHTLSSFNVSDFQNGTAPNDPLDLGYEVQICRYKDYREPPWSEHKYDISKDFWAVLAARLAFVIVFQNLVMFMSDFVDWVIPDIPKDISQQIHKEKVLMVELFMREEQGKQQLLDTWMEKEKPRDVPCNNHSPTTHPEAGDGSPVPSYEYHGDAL
Experiment: Inside-out patch recording of 1PBC block, mutant V543A
Format: cell-based
Conditions: for remaining activity at 30 µM: 1PBC 30; for remaining activity at 30 µM / remaining activity at 100 µM: read-out: fraction of unblocked current; for remaining activity at 100 µM: 1PBC 100
Protocol: HEK293T cells (ATCC CRL-1573) were maintained in Dulbecco’s modified Eagle’s medium (DMEM; Sigma-Aldrich) supplemented with 10 U ml^−1 penicillin, 0.1 mg ml^−1 streptomycin (Sigma-Aldrich), 2 mM L-glutamine (Sigma-Aldrich), and 10% FBS (Sigma-Aldrich) in a humidified atmosphere containing 5% CO2 at 37 °C. HEK293S GnTI^− cells (ATCC CRL-3022) were maintained in HyClone HyCell TransFx-H medium (GE Healthcare) supplemented with 10 U ml^−1 penicillin, 0.1 mg ml^−1 streptomycin, 4 mM L-glutamine, 0.15% poloxamer 188 (Sigma-Aldrich), and 1% FBS in an atmosphere containing 5% CO2 at 185 rpm at 37 °C. The ac splice variant of mouse TMEM16A (UniProt ID: Q8BHY3), mouse TMEM16B (UniProt ID: Q8CFW1), or mouse TMEM16F (UniProt ID: Q6P9J9) bearing a 3C cleavage site, a Venus YFP, a Myc tag, and a Streptavidin-binding peptide (SBP) downstream of the open reading frame in a modified pcDNA3.1 vector (Invitrogen) were used as described previously[21],[31]. Mutations were introduced using a modified QuikChange method[58] and were verified by sequencing.
HEK293T cells were transfected with 3–4 μg DNA per 6 cm Petri dish using the calcium phosphate co-precipitation method and were used within 24–96 h after transfection. Recordings were performed on inside-out patches excised from HEK293T cells expressing the construct of interest. Patch pipettes were pulled from borosilicate glass capillaries (O.D. 1.5 mm, I.D. 0.86 mm, Sutter Instrument) and were fire-polished with a microforge (Narishige) before use. Pipette resistance was typically 3–8 MΩ when filled with the recording solutions detailed below. Seal resistance was typically 4 GΩ or higher. Voltage-clamp recordings were made using Axopatch 200B, Digidata 1550, and Clampex 10.7 (Molecular Devices). Analog signals were filtered with the in-built 4-pole Bessel filter at 10 kHz and were digitized at 20 kHz. Solution exchange was achieved using a gravity-fed system through a theta glass pipette mounted on an ultra-fast piezo-driven stepper (Siskiyou). […] All recordings were performed at 20 °C.
A symmetrical ionic condition was used throughout. Stock solution with Ca^2+-EGTA contained 150 mM NaCl, 5.99 mM Ca(OH)2, 5 mM EGTA, and 10 mM HEPES at pH 7.40. Stock solution with EGTA contained 150 mM NaCl, 5 mM EGTA, and 10 mM HEPES at pH 7.40. Free Ca^2+ concentrations were adjusted by mixing the stock solutions at the required ratios calculated using the WEBMAXC program (http://web.stanford.edu/~cpatton/webmaxcS.htm). Patch pipettes were filled with the stock solution with Ca^2+-EGTA, which has a free Ca^2+ concentration of 1 mM. 1PBC (ChemBridge) stock was reconstituted in anhydrous DMSO (Sigma-Aldrich) at 100 mM and stored at −20 °C. Working solutions with 1PBC were prepared by serial dilution. Unless otherwise stated, experiments were performed at a saturating Ca^2+ concentration as shown in Supplementary Table 1 and the primary data were corrected for current rundown as described previously[21],[25].
Concentration-response relations, obtained from the ratio of the I-V plots before and after the application of the blocker, were fitted to the Hill equation,1 I/Imax=1/1+IC50/[blocker]^h where I/Imax is the normalized current responses, IC50 defines the concentration at which inhibition is at its half-maximum, and h is the Hill coefficient.

- remaining activity at 30 µM (-60 mV): 39.5%
- remaining activity at 30 µM (-80 mV): 43.8%
- remaining activity at 30 µM (-100 mV): 47.1%
- remaining activity at 30 µM (-120 mV): 51.5%
- remaining activity at 30 µM (-140 mV): 54.7%
- remaining activity at 100 µM (0 mV): 9.46%
- remaining activity at 100 µM (20 mV): 7.3%
- remaining activity at 100 µM (40 mV): 6.78%
- remaining activity at 100 µM (60 mV): 6.85%
- remaining activity at 100 µM (80 mV): 6.35%
- remaining activity at 100 µM (100 mV): 6.17%
- remaining activity at 100 µM (120 mV): 6.44%
- remaining activity at 100 µM (140 mV): 6.48%
- remaining activity at 100 µM (-20 mV): 11.6%
- remaining activity at 100 µM (-40 mV): 13.7%
- remaining activity at 100 µM (-60 mV): 16%
- remaining activity at 100 µM (-80 mV): 18.7%
- remaining activity at 100 µM (-100 mV): 21.8%
- remaining activity at 100 µM (-120 mV): 25%
- remaining activity at 100 µM (-140 mV): 27.8%
- pIC50 (20 mV, 15 µM Ca2+): 5.02
- pIC50 (40 mV, 15 µM Ca2+): 5.06
- pIC50 (60 mV, 15 µM Ca2+): 5.09
- log-fold IC50 (change of mutant vs WT) (80 mV): 0.6263
- pIC50 (80 mV, 15 µM Ca2+): 5.10
- pIC50 (100 mV, 15 µM Ca2+): 5.08
- pIC50 (120 mV, 15 µM Ca2+): 5.05
- pIC50 (140 mV, 15 µM Ca2+): 5.02
- pIC50 (-20 mV, 15 µM Ca2+): 4.88
- pIC50 (-40 mV, 15 µM Ca2+): 4.81
- pIC50 (-60 mV, 15 µM Ca2+): 4.73
- pIC50 (-80 mV, 15 µM Ca2+): 4.66
- pIC50 (-100 mV, 15 µM Ca2+): 4.59
- pIC50 (-120 mV, 15 µM Ca2+): 4.52
- pIC50 (-140 mV, 15 µM Ca2+): 4.46
- pIC50 (V543A, V 0 mV): 4.95
- pIC50 (V543A, V 20 mV): 5.02
- pIC50 (V543A, V 40 mV): 5.06
- pIC50 (V543A, V 60 mV): 5.09
- pIC50 (V543A, V 80 mV): 5.10
- pIC50 (V543A, V 100 mV): 5.08
- pIC50 (V543A, V 120 mV): 5.05
- pIC50 (V543A, V 140 mV): 5.02
- pIC50 (V543A, V -20 mV): 4.88
- pIC50 (V543A, V -40 mV): 4.81
- pIC50 (V543A, V -60 mV): 4.73
- pIC50 (V543A, V -80 mV): 4.66
- pIC50 (V543A, V -100 mV): 4.59
- pIC50 (V543A, V -120 mV): 4.52
- pIC50 (V543A, V -140 mV): 4.46
Structure (SMILES): N#Cc1c(C(F)(F)F)cc(O)n2c1nc1ccccc12 [1PBC]
